# Data as given in PubChem BioAssay (NCI).
#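 Briefly, cells in 96-well plates were exposed to five compound concentrations for 48 h, and endpoints were estimated by linear interpolation. At the TGI there is no net growth.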
# Key:
# Assay in all cases: NCI tumour cell line growth inhibition, 48 h
# UO-31 renal = system: UO-31 renal
# RPMI-8226 leukemia = system: RPMI-8226 leukemia
# OVCAR-3 ovarian = system: OVCAR-3 ovarian
# SW-620 colon = system: SW-620 colon
# LOX IMVI melanoma = system: LOX IMVI melanoma
# NCI-H23 lung = system: NCI-H23 lung
# UACC-257 melanoma = system: UACC-257 melanoma
# CCRF-CEM leukemia = system: CCRF-CEM leukemia
# HOP-92 NSCLC = system: HOP-92 NSCLC
# SK-MEL-2 melanoma = system: SK-MEL-2 melanoma
Structure (SMILES),TGI (UO-31 renal),TGI (RPMI-8226 leukemia),TGI (OVCAR-3 ovarian),TGI (SW-620 colon),TGI (LOX IMVI melanoma),TGI (NCI-H23 lung),TGI (UACC-257 melanoma),TGI (CCRF-CEM leukemia),TGI (HOP-92 NSCLC),TGI (SK-MEL-2 melanoma)
CC(=O)OCC(OC(C)=O)C(OC(C)=O)C(OC(C)=O)C(/C=N\Nc1nc2ccccc2c(=O)[nH]1)=N/Nc1nc2ccccc2c(=O)[nH]1 (stereo not drawn),> 100 µM,> 100 µM,> 100 µM,> 100 µM,> 100 µM,> 100 µM,> 100 µM,> 100 µM,> 100 µM,> 100 µM
COc1ccc(/C=C2/CCS(=O)(=O)c3ccc(C)cc3C2=O)cc1OC,20.1 µM,37.6 µM,> 100 µM,> 100 µM,20.4 µM,27.3 µM,25.4 µM,69.8 µM,9.55 µM,60.9 µM
CCN(CC)CCNc1ccc2nnn3c4ccccc4c(=O)c1c23,29.3 µM,> 24.2 µM,23.7 µM,15.4 µM,12 µM,19.7 µM,22.3 µM,18.7 µM,11.7 µM,14 µM
N#Cc1c(N)c(C#N)c2c(c1-c1ccc(Cl)cc1)COc1ccccc1-2,13 µM,17.1 µM,30.6 µM,> 100 µM,> 100 µM,39.9 µM,> 100 µM,33 µM,45.5 µM,60.1 µM
C[C@]12CC/C(=N\OCCN3CCCCC3)C=C1CCC1C2CC[C@@]2(C)C1CC[C@]2(C)O (stereo partly drawn),23.2 µM,31.5 µM,42.8 µM,62.8 µM,15.7 µM,33.5 µM,18.9 µM,11.3 µM,26 µM,28.8 µM
COc1ccc2c(-c3ccc(O)cc3)c(Oc3ccc(Cl)cc3)c(=O)oc2c1,13.6 µM,20.8 µM,12.3 µM,> 32 µM,> 44.9 µM,8.32 µM,41 µM,> 100 µM,23.7 µM,11.2 µM
NC(=O)C(Nc1ccc(Cl)cc1)c1cc2cc(Br)ccc2nc1Cl (stereo not drawn),> 50 µM,> 50 µM,> 50 µM,> 50 µM,> 50 µM,> 50 µM,> 50 µM,> 50 µM,> 50 µM,> 50 µM
CCN(CC)C(=S)SS(=O)(=O)c1ccccc1[N+](=O)[O-],31.2 µM,40.9 µM,68 µM,> 53.7 µM,> 57 µM,99 µM,> 60.6 µM,> 100 µM,> 54.8 µM,> 100 µM
CC(NC(NC(C)C12CC3CC(CC(C3)C1)C2)=C(C(Cl)=C(Cl)Cl)[N+](=O)[O-])C12CC3CC(CC(C3)C1)C2 (stereo not drawn),> 100 µM,> 69.5 µM,64.8 µM,62.1 µM,21.5 µM,34.3 µM,> 54.6 µM,4.64 µM,17.3 µM,> 67.6 µM
O=C1C(Cl)C(c2cc3cc(Br)ccc3nc2Cl)N1c1c(Cl)cccc1Cl (stereo not drawn),4.5 µM,23 µM,> 25 µM,> 25 µM,7.96 µM,> 25 µM,> 25 µM,20 µM,> 25 µM,> 25 µM
CCCOC1OC(CS(=O)(=O)O)C(O)C(O)C1O (stereo not drawn),> 100 µM,> 100 µM,> 100 µM,> 100 µM,> 100 µM,> 100 µM,> 100 µM,> 100 µM,> 100 µM,> 100 µM
CC1(C)CN=C(Nc2ccc(F)c(F)c2)S1,> 100 µM,> 100 µM,> 100 µM,> 100 µM,> 100 µM,> 100 µM,> 100 µM,> 100 µM,90.4 µM,> 100 µM
O=C(Nn1cnn2c(=O)c3ccccc3nc2c1=O)c1ccccc1,> 100 µM,> 100 µM,> 100 µM,> 100 µM,> 100 µM,> 100 µM,> 100 µM,> 100 µM,> 100 µM,> 100 µM
[O-][n+]1c(-c2ccccc2)c2nc3ccccc3nc2c2ccccc21,> 100 µM,> 100 µM,> 100 µM,> 100 µM,> 100 µM,> 100 µM,> 100 µM,> 100 µM,> 100 µM,> 100 µM
CC1OC(O[C@H]2CC[C@]3(C=O)[C@H]4CC[C@]5(C)[C@H](C6=CC(=O)OC6)CC[C@]5(O)[C@@H]4C=C[C@]3(O)C2)CC(O)C1O (stereo partly drawn),0.546 µM,2.37 µM,0.583 µM,0.902 µM,0.652 µM,0.494 µM,1.82 µM,0.82 µM,2.62 µM,1.14 µM
COc1cc2c(c(OC(C)=O)c1OC(C)=O)-c1ccc(SC)c(=O)cc1C(NC(C)=O)CC2 (stereo not drawn),> 100 µM,> 100 µM,2.43 µM,> 100 µM,> 100 µM,31.4 µM,> 100 µM,35.7 µM,7.29 µM,7.07 µM
COc1ccc(N2C(=O)/C(=C\c3cccc(Oc4ccccc4)c3)SC2c2ccccc2)cc1 (stereo not drawn),> 100 µM,60.9 µM,> 100 µM,> 100 µM,> 100 µM,> 100 µM,> 100 µM,44.8 µM,> 100 µM,> 100 µM

Structure (SMILES),TGI (UO-31 renal),TGI (RPMI-8226 leukemia),TGI (OVCAR-3 ovarian),TGI (SW-620 colon),TGI (LOX IMVI melanoma),TGI (NCI-H23 lung),TGI (UACC-257 melanoma),TGI (CCRF-CEM leukemia),TGI (HOP-92 NSCLC),TGI (SK-MEL-2 melanoma)
CCC(=O)NCCc1c2c3c(ccnc3c3ncsc13)-c1ccccc1N2,> 100 µM,19.8 µM,> 66.5 µM,> 100 µM,> 82.6 µM,> 100 µM,> 94.9 µM,> 100 µM,> 100 µM,> 100 µM
Oc1cc(CN2COc3ccccc32)c(O)cc1CNC1CCCCC1,> 100 µM,64.5 µM,> 100 µM,> 100 µM,31.6 µM,64.5 µM,30.6 µM,> 100 µM,75.4 µM,50 µM
COC1(CC[C@H](C)COC2OC(CO)C(O)C(O)C2O)O[C@H]2C[C@H]3[C@@H]4CC=C5C[C@@H](OC6OC(CO)C(O)C(OC7OC(CO)C(O)C(O)C7O)C6OC6OC(C)C(O)C(O)C6O)CC[C@]5(C)[C@H]4CC[C@]3(C)[C@H]2[C@@H]1C (stereo partly drawn),4.36 µM,23.6 µM,33.1 µM,5.87 µM,6.06 µM,18.9 µM,22 µM,> 32.9 µM,10.1 µM,25.2 µM
O=c1[nH]c(=O)n(C/C=C/CBr)nc1Br,32.5 µM,23.3 µM,23.9 µM,29.5 µM,5.78 µM,25.5 µM,24.9 µM,30.7 µM,26.5 µM,26 µM
C=CCc1cccc(/C=N\N=C(/N)NO)c1O,6.69 µM,14.6 µM,> 25.2 µM,> 100 µM,22.7 µM,26.5 µM,30.6 µM,> 27 µM,> 67.9 µM,> 54.4 µM
Cc1cc2c(cc1C)C(=O)/C(=N/Nc1ccc(F)cc1)CCO2,> 100 µM,> 100 µM,> 100 µM,> 100 µM,> 100 µM,> 100 µM,> 100 µM,> 100 µM,> 100 µM,97 µM
NC(N)=NS(=O)(=O)c1ccc(NC(=O)c2ccc3[nH]c4ccccc4c(=O)c3c2)cc1,> 100 µM,> 100 µM,> 100 µM,> 100 µM,> 100 µM,> 100 µM,> 100 µM,> 100 µM,> 100 µM,> 100 µM
COc1ccc2c(CCNS(=O)(=O)c3ccccc3)c(C(C)=O)[nH]c2c1,> 100 µM,> 100 µM,> 100 µM,> 100 µM,> 100 µM,> 100 µM,> 57.1 µM,> 100 µM,> 100 µM,> 100 µM
COc1cc(C23OCC(Cc4cc5c(cc42)OCO5)C3CO)cc(OC)c1OC (stereo not drawn),> 100 µM,> 100 µM,5.8 µM,> 100 µM,13.2 µM,> 100 µM,> 100 µM,> 100 µM,> 100 µM,> 100 µM
COc1ccc2c(c1)C(N)=C(Cc1ccncc1)C2=O,> 100 µM,> 100 µM,> 100 µM,> 100 µM,> 100 µM,> 100 µM,> 100 µM,> 100 µM,> 100 µM,> 100 µM
c1ccc(C2=Nc3cccc4cccc(c34)N2)cc1,> 56.1 µM,> 84.6 µM,45.2 µM,39.3 µM,60 µM,> 100 µM,> 100 µM,28.7 µM,52.7 µM,> 93.1 µM
C=CCn1cnc2c(=O)[nH]c(Nc3ccccc3)nc21,> 100 µM,> 100 µM,> 100 µM,> 100 µM,> 100 µM,–,> 100 µM,> 100 µM,> 100 µM,> 100 µM
NC(=S)NS(=O)(=O)c1ccc(F)cc1F,–,> 100 µM,> 100 µM,> 100 µM,> 100 µM,> 100 µM,> 100 µM,> 100 µM,> 100 µM,> 100 µM
O=C(CCOS(=O)(=O)CF)N1CCN(C(=O)CCOS(=O)(=O)CF)CC1,> 100 µM,> 46.4 µM,> 100 µM,> 100 µM,> 100 µM,> 100 µM,> 100 µM,> 87.9 µM,> 100 µM,> 100 µM
Cn1c2c3c(F)c(F)ccc3nc-2cc2ccccc21,7.52 µM,11.5 µM,13.6 µM,12.4 µM,5.23 µM,3.18 µM,19.7 µM,28 µM,49.1 µM,14.1 µM
COC(=O)c1cc(C)n(CN(Cc2ccccc2)Cn2nc(C(=O)OC)cc2C)n1,> 92.1 µM,> 62.9 µM,> 100 µM,> 78 µM,> 100 µM,> 100 µM,> 100 µM,> 67.6 µM,> 100 µM,> 100 µM
COc1cccc2cc(C(=O)Nc3ccccn3)c(=N)oc12,> 100 µM,> 100 µM,88.4 µM,> 100 µM,> 100 µM,> 100 µM,> 100 µM,> 100 µM,> 100 µM,> 100 µM
